Assay results reported in US20100279942A1, “METHODS FOR TREATING MOTOR NEURON DISEASE” (priority 2004, published 2010).
Ends that are not written are not given here.

Experiments:
[1] = system: NSC34 cells transformed with SOD1 mutant (A4T-SOD1, G85R-SOD1, G93R-SOD1) genes; assay: Neuronal cell death test, Trypan blue exclusion assay, NSC34 cells transformed with SOD1 mutant genes; type: cell-based, mouse
Protocol: NSC34 cell, the hybrid cell of primary cultured, motor neuron-system embryonic mouse spinal cord cell with mouse neuroblastoma NTG18 cell, was cultured in […] medium containing 10% FBS and antibiotics (Cashman N R, et al., 1992, Dev Dyn 194: 209-221; and Durham H D, et al, 1993, Neurotoxicology 14: 387-395).
The NSC34 cells (7×10^4 cells/well, 6-well plate, 12 to 16-hour culture in DMEM (10% FBS) medium) were transformed with wild-type or SOD1 mutant (A4T, G85R, and G93R) genes by lipofection (0.5 μg of each SOD1 gene; 1 μl of LipofectAMINE; 2 μl of PLUS Reagent) under serum-free conditions for 3 hours and cultured for 21 hours in DMEM (10% FBS) and after 48 hours in DMED supplemented with N2 supplement (Invitrogen). After 72 hours of the transformation, cell mortality was measured by Trypan blue exclusion assay in the same way as above.
F11 or NSC34 cells were transformed with pEF-BOS, A4T-SOD1, G85R-SOD1, or G93R-SOD1 cDNA in the presence of increasing concentrations (10 aM, 1 fM, 100 fM, 10 pM, 1 nM, and 100 nM) of ADNF. After 72 hours, cell mortality was measured by Trypan blue exclusion assay.

[2] = system: F11 cells transformed with SOD1 mutant (A4T-SOD1, G85R-SOD1, G93R-SOD1) genes; assay: Neuronal cell death test, Trypan blue exclusion assay, F11 cells transformed with SOD1 mutant genes; type: cell-based, rat/mouse hybrid cell
Protocol: F11 cell, the hybrid cell of rat embryonic day 13 (E13) primary cultured neuronal cell with mouse neuroblastoma NTG18 cell, was cultured in Ham's F-12 medium (Life Technologies, Gaithersburg, Md.) containing 18% FBS (Hyclone, Logan, Utah) and antibiotics as previously reported (Platika D, et al., 1985, Proc Natl Acad Sci USA 82: 3499-3503; Yamatsuji T, et al., 1996, Science 272: 1349-1352; Huang P, et al., 2000, Mol Hum Reprod 6: 1069-1078; and Niikura T, et al., 2001, J Neuroscience, 21: 1902-1910).
The F11 cells (7×10^4 cells/well, 6-well plate, 12- to 16-hour culture in Ham's F-12 (18% PBS) medium) were transformed with wild-type or SOD1 mutant (A4T, G85R, and G93R) genes by lipofection (0.5 μg of each SOD1 gene; 1 μl of LipofectAMINE; 2 μl of PLUS Reagent) under serum-free conditions for 3 hours and cultured for 2 hours in Ham's F-12 (18% PBS) medium. The medium was replaced by Ham's F-12 (10% PBS) in the presence or absence of ADNF. After 72 hours of the transformation, cell mortality was measured by Trypan blue exclusion assay as previously reported (Hashimoto Y, et al., 2001, J Neurosci 21: 9235-9245; and Hashimoto Y, et al, 2001, Proc Natl Acad Sci USA 98: 6336-6341). […]
Intracellular signaling by ADNF was examined. F11 cells were transformed with pEF-BOS or SOD1 mutant (A4T-SOD1, G85R-SOD1, or G93R-SOD1) cDNA and reacted with 10 nM wortmannin (PI3 kinase inhibitor), 100 μM genistein (tyrosine kinase inhibitor), 50 μM PD98059 (MEK inhibitor), 20 μM SB203580 (p38 MAPK inhibitor), 1 μM AG490 (JAK kinase inhibitor), 5 μM KN93 (calcium/calmodulin-dependent kinase inhibitor), or 10 μM HA1004 (protein kinase A inhibitor) in the presence or absence of 100 nM ADNF. After 72 hours of the transformation, cell mortality was measured by Trypan blue exclusion assay.
The effect of KN93 on the neuroprotective action of ADNF was examined. […] After 72 hours of the transformation, cell mortality was measured by Trypan blue exclusion assay. […]

SOD1 proteins = assay: Immunoblot analysis of SOD1 protein expression in transformed cells; type: cell-based, mouse and rat/mouse hybrid; conditions: ADNF treatment; F11 and NSC34 cells
Protocol: Immunoblot analysis was conducted according to the previous report (Hashimoto Y, et al., supra, p. 6336-6341). To examine the protein expression of wild-type or SOD1 mutant genes, lysates from the cells transfected with each SOD1 gene were subjected to SDS-PAGE (20 μg/lane). After electrical blotting to a PVDF membrane, the membrane was blocked by a typical method and reacted with an anti-SOD1 antibody and then with a 1:5000-diluted horseradish peroxidase-conjugated anti-mouse IgG antibody (Bio-Rad Lab. Hercules, Calif., USA). The antibody-reactive bands were detected by ECL (Amersham Pharmacia Biotech, Uppsala, Sweden).

[3] = ADNF at concentrations equal to or above 10 nM

SALLRSIPA [ADNF, short peptide consisting of nine amino acid residues]
inhibition of neuronal cell death caused by SOD1 mutant genes ([1]; 100 fM ADNF, three SOD1 mutant genes, 72 hours): can completely inhibit neuronal cell death | inhibitory effect on neuronal cell death at high concentration [1, 3]: not decreased | cell death inhibition ([2]; 10 aM ADNF, three SOD1 mutant genes, 72 hours): hardly exhibited cell death inhibition | cell mortality induced by SOD1 mutant genes ([2]; 100 fM ADNF, A4T-, G85R-, G93R-SOD1, 72 hours after transformation): completely decreased cell mortalities induced by these three types of SOD1 mutant genes to the level of the control | protective action on cell death caused by SOD1 mutant genes [2, 3]: complete protective action | SOD1 gene expression levels (SOD1 proteins): not affected
